Assay: xn = mol fraction of the nth substance listed

CC[n+]1ccn(C)c1.O=S(=O)([O-])C(F)(F)F + CCC(C)O
101 kPa
Conditions | viscosity [mPa·s]
298.15 K, x1 = 0.7986 | 30.77
298.15 K, x1 = 1 | 45.67
303.15 K, x1 = 0.3938 | 6.96
303.15 K, x1 = 0.4988 | 9.31
303.15 K, x1 = 0.5952 | 13.31
303.15 K, x1 = 0.7986 | 26.05
308.15 K, x1 = 0.3938 | 6.16
308.15 K, x1 = 0.903 | 28.15
313.15 K, x1 = 0.1945 | 3.63
313.15 K, x1 = 0.4988 | 7.33
313.15 K, x1 = 0.5952 | 10.28
313.15 K, x1 = 0.6907 | 14.61
313.15 K, x1 = 1 | 27.68
318.15 K, x1 = 0.4988 | 6.57
318.15 K, x1 = 0.903 | 20.96
323.15 K, x1 = 0.6907 | 11.38
323.15 K, x1 = 0.903 | 18.3

CCCCCCCCCCCCCC[P+](CCCCCC)(CCCCCC)CCCCCC.N#C[N-]C#N + CCCCCCCCCCCC
101 kPa
Conditions | viscosity [mPa·s]
303.15 K, x1 = 1 | 328
308.15 K, x1 = 0.5534 | 90
313.15 K, x1 = 0.736 | 112
323.15 K, x1 = 0.5534 | 47.4
323.15 K, x1 = 0.736 | 72.7
323.15 K, x1 = 1 | 123
328.15 K, x1 = 0.5534 | 39.2
328.15 K, x1 = 0.736 | 60
343.15 K, x1 = 0.5534 | 24.2
353.15 K, x1 = 1 | 41

CCCCC[N+](CCCCC)(CCCCC)CCCCC.[Br-] + CCCCCCCCCCCCOS(=O)(=O)[O-].[Na+] + O
viscosity [mPa·s], 100 kPa
Conditions | x2 = 1.81e-06, x1 = 0.0001802 | x2 = 3.62e-06, x1 = 0.0001802 | x2 = 5.43e-06, x1 = 0.0001802 | x2 = 7.23e-06, x1 = 0.0001802 | x2 = 9.04e-06, x1 = 0.0001802 | x2 = 1.085e-05, x1 = 0.0001802 | x2 = 1.266e-05, x1 = 0.0001802 | x2 = 1.447e-05, x1 = 0.0001802 | x2 = 1.628e-05, x1 = 0.0001802 | x2 = 1.808e-05, x1 = 0.0001802
293.15 K | 1.024 | 1.026 | 1.027 | 1.028 | 1.028 | 1.029 | 1.029 | 1.029 | 1.03 | 1.03
298.15 K | 0.914 | 0.916 | 0.917 | 0.917 | 0.919 | 0.92 | 0.921 | 0.921 | 0.922 | 0.922
303.15 K | 0.8 | 0.801 | 0.802 | 0.803 | 0.803 | 0.803 | 0.803 | 0.803 | 0.804 | 0.805
308.15 K | 0.723 | 0.723 | 0.724 | 0.724 | 0.724 | 0.724 | 0.725 | 0.725 | 0.726 | 0.726
313.15 K | 0.658 | 0.659 | 0.66 | 0.66 | 0.661 | 0.661 | 0.661 | 0.661 | 0.662 | 0.662
318.15 K | 0.604 | 0.605 | 0.605 | 0.605 | 0.606 | 0.606 | 0.606 | 0.606 | 0.606 | 0.606

CCCCC[N+](CCCCC)(CCCCC)CCCCC.[Br-] + CCCCCCCCCCCC[N+](C)(C)C.[Br-] + O
viscosity [mPa·s], 100 kPa
Conditions | x2 = 5.425e-05, x1 = 0.0001802 | x2 = 0.0001085, x1 = 0.0001801 | x2 = 0.0001627, x1 = 0.0001801 | x2 = 0.000217, x1 = 0.0001801 | x2 = 0.0002712, x1 = 0.0001801 | x2 = 0.0003254, x1 = 0.0001801 | x2 = 0.0003796, x1 = 0.0001801 | x2 = 0.0004339, x1 = 0.0001801 | x2 = 0.0004881, x1 = 0.0001801 | x2 = 0.0005422, x1 = 0.0001801
293.15 K | 1.057 | 1.059 | 1.06 | 1.061 | 1.062 | 1.062 | 1.063 | 1.063 | 1.063 | 1.064
298.15 K | 0.943 | 0.944 | 0.945 | 0.946 | 0.948 | 0.949 | 0.95 | 0.951 | 0.951 | 0.953
303.15 K | 0.825 | 0.826 | 0.826 | 0.827 | 0.827 | 0.827 | 0.828 | 0.828 | 0.828 | 0.829
308.15 K | 0.745 | 0.746 | 0.746 | 0.746 | 0.747 | 0.747 | 0.747 | 0.748 | 0.748 | 0.749
313.15 K | 0.679 | 0.68 | 0.681 | 0.681 | 0.682 | 0.682 | 0.682 | 0.682 | 0.683 | 0.683
318.15 K | 0.624 | 0.625 | 0.625 | 0.625 | 0.626 | 0.626 | 0.626 | 0.626 | 0.626 | 0.627

OCC(O)CO + CCCCCCCCCCCC[P+](CC)(CC)CC.N#Cc1ccc[n-]1
100 kPa, x2 = 0
Conditions | viscosity [mPa·s]
293.15 K | 1360
298.15 K | 860
303.15 K | 542
313.15 K | 217

II + CCCCCCCCCCCC[n+]1ccn(C)c1.[I-]
Conditions | electrical conductivity [S/m]
298 K, 101.3 kPa, x2 = 0.2 | 2.02

CCCCOC(C)=O + CCCCCCCCn1cc[n+](C)c1.F[B-](F)(F)F
Conditions | viscosity [mPa·s]
298.15 K, 101 kPa, x1 = 1 | 0.7

[Br-].[Li+] + CCCCCCCCn1cc[n+](C)c1.N#C[S-] + CN1CCCC1=O
298.15 K, 101 kPa
Conditions | viscosity [mPa·s]
x2 = 0, x1 = 0.02595 | 2.385
x2 = 0, x1 = 0.05088 | 3.13
x2 = 0, x1 = 0.07505 | 4.349

CCCCCCCC[n+]1ccc2ccccc2c1.O=S(=O)([N-]S(=O)(=O)C(F)(F)F)C(F)(F)F + CCCCCCO
101 kPa
Conditions | viscosity [mPa·s]
318.15 K, x2 = 0.2857 | 48.99
338.15 K, x2 = 0.6854 | 6.58

[Br-].[Li+] + CCCCCC[n+]1ccn(C)c1.N#C[S-] + CN1CCCC1=O
298.15 K, 101 kPa
Conditions | viscosity [mPa·s]
x2 = 0, x1 = 0.02735 | 2.37
x2 = 0, x1 = 0.05202 | 3.192
x2 = 0, x1 = 0.07626 | 4.329

CCCCCCCC[n+]1ccc2ccccc2c1.O=S(=O)([N-]S(=O)(=O)C(F)(F)F)C(F)(F)F + CCCCO
101 kPa
Conditions | viscosity [mPa·s]
298.15 K, x2 = 0.3134 | 122.9
298.15 K, x2 = 0.5032 | 55.19
308.15 K, x2 = 0.3134 | 71.3
308.15 K, x2 = 0.6915 | 15.21
318.15 K, x2 = 0.7937 | 6.33
328.15 K, x2 = 0.1708 | 45.14
338.15 K, x2 = 0.3134 | 21.01
338.15 K, x2 = 0.6915 | 5.91
338.15 K, x2 = 0.7937 | 3.66

CC(=O)CCC(=O)O + CCCC[N+](CCCC)(CCCC)CCCC.[Cl-]
Conditions | electrical conductivity [S/m] | viscosity [mPa·s]
293.15 K, 101.33 kPa, x2 = 0.3333 | – | 609
298.15 K, 101.33 kPa, x2 = 0.3333 | – | 405
303.15 K, 101.33 kPa, x2 = 0.3333 | – | 276
308.15 K, 101.33 kPa, x2 = 0.3333 | – | 195
313.15 K, 101.33 kPa, x2 = 0.3333 | – | 141
318.15 K, 101.33 kPa, x2 = 0.3333 | – | 105
323.15 K, 101.33 kPa, x2 = 0.3333 | – | 79
328.15 K, 101.33 kPa, x2 = 0.3333 | – | 61
333.15 K, 101 kPa, x1 = 0.75 | 0.177 | 17.47
333.15 K, 101.33 kPa, x2 = 0.3333 | – | 48
338.15 K, 101.33 kPa, x2 = 0.3333 | – | 39
343.15 K, 101 kPa, x1 = 0.75 | 0.238 | –
343.15 K, 101.33 kPa, x2 = 0.3333 | – | 32
348.15 K, 101.33 kPa, x2 = 0.3333 | – | 26
353.15 K, 101.33 kPa, x2 = 0.3333 | – | 22

O=C(O)CC(O)C(=O)O (configuration not stated) + CCCC[N+](CCCC)(CCCC)CCCC.[Cl-] + O
100 kPa, x2 = 0.1428, x1 = 0.1428
Conditions | electrical conductivity [S/m] | viscosity [mPa·s]
293.15 K | 0.0722 | 283
303.15 K | 0.113 | 191
313.15 K | 0.173 | 133
323.15 K | 0.257 | 94
333.15 K | 0.373 | 68.1

NCCNCCN + CCCC[n+]1ccn(C)c1.F[B-](F)(F)F
101.3 kPa
Conditions | viscosity [mPa·s]
298.15 K, x2 = 0 | 5.52
298.15 K, x2 = 0.3995 | 23.66
298.15 K, x2 = 0.5905 | 40.1
303.15 K, x2 = 0.2998 | 14.59
303.15 K, x2 = 0.4992 | 26.4
303.15 K, x2 = 0.5905 | 33.6
303.15 K, x2 = 0.6974 | 44.2
303.15 K, x2 = 0.8948 | 69.1
308.15 K, x2 = 0.2998 | 12.47
313.15 K, x2 = 0.1986 | 7.86
313.15 K, x2 = 0.3995 | 14.5
313.15 K, x2 = 0.4992 | 19.06
313.15 K, x2 = 0.6974 | 30.9
318.15 K, x2 = 0.051 | 3.95
323.15 K, x2 = 0.2998 | 8.65
323.15 K, x2 = 0.3995 | 11.33
323.15 K, x2 = 0.5905 | 18.26
328.15 K, x2 = 0.2998 | 7.68
328.15 K, x2 = 0.3995 | 9.9
328.15 K, x2 = 0.4992 | 12.63
328.15 K, x2 = 0.6974 | 19.4
333.15 K, x2 = 0.1986 | 4.89
333.15 K, x2 = 0.2998 | 6.68
333.15 K, x2 = 0.4992 | 11.19
333.15 K, x2 = 0.6974 | 17.57
333.15 K, x2 = 0.9496 | 24.5

From the CheMixHub ionic liquid set
